Source: the supplement of paper PMC10307832

Legend:
Test in all cases: relative viability (nuclei count vs DMSO), 5 days (fraction); higher = more cells survive
NCI-H1355 = test system: NCI-H1355
Summary of the method: (§1)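 Relative viability divides the nuclei count in treated wells by that in vehicle wells. Lung cancer cell lines were seeded in 1536-well plates, dosed by pin tool the next day, and fixed and stained after 5 days in one step with final 0.05% Triton X-100, 1% formaldehyde and 1 ug/ml Hoechst. Dosing was a single drug or a fixed anchor-drug dose plus five library-drug doses (not always all listed) in √10 steps, and values are medians of duplicate plates imaged at 4×.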

UMC-11 = test system: UMC-11
Summary of the method: as §1

RERF-LC-KJ = test system: RERF-LC-KJ
Summary of the method: as §1

HCC-78 = test system: HCC-78
Summary of the method: as §1

SW 1573 = test system: SW 1573
Summary of the method: as §1

EPLC-272H = test system: EPLC-272H
Summary of the method: as §1

NCI-H1755 = test system: NCI-H1755
Summary of the method: as §1

NCI-H1993 = test system: NCI-H1993
Summary of the method: as §1

HARA = test system: HARA
Summary of the method: as §1

NCI-H596 = test system: NCI-H596
Summary of the method: as §1

NCI-H838 = test system: NCI-H838
Summary of the method: as §1

COR-L 105 = test system: COR-L 105
Summary of the method: as §1

SK-MES-1 = test system: SK-MES-1
Summary of the method: as §1

NCI-H1975 = test system: NCI-H1975
Summary of the method: as §1

NCI-H2228 = test system: NCI-H2228
Summary of the method: as §1

HCC-366 = test system: HCC-366
Summary of the method: as §1

PC-3 [JPC-3] = test system: PC-3 [JPC-3]
Summary of the method: as §1

NCI-H520 = test system: NCI-H520
Summary of the method: as §1

HCC-827 = test system: HCC-827
Summary of the method: as §1

LCLC-103H = test system: LCLC-103H
Summary of the method: as §1

HCC-44 = test system: HCC-44
Summary of the method: as §1

LOU-NH91 = test system: LOU-NH91
Summary of the method: as §1

NCI-H1651 = test system: NCI-H1651
Summary of the method: as §1

NCI-H2170 = test system: NCI-H2170
Summary of the method: as §1

NCI-H1793 = test system: NCI-H1793
Summary of the method: as §1

For `Nc1cccc2c1CN(C1CCC(=O)NC1=O)C2=O` (stereo not given) [Lenalidomide] + COc1cccc2cc(-c3nc([C@H]4CC[C@H](C(=O)O)CC4)n4ncnc(N)c34)[nH]c12 [OSI-027] (partner 0.5 µM), which relative viability (NCI-H1355; first compound 0.253 µM) is on record?
The relative viability was 0.449.

And the relative viability (NCI-H1355; first compound 2.53 µM)?
Its relative viability is 0.436.

What about the relative viability (NCI-H1355; first compound 8 µM) of the same molecule?
Its relative viability is 0.362.

What about the relative viability (UMC-11; first compound 0.253 µM) of the same molecule?
The relative viability was 0.456.

What about the relative viability (UMC-11; first compound 0.8 µM) of the same molecule?
Its relative viability is 0.576.

What about the relative viability (UMC-11; first compound 2.53 µM) of the same molecule?
The relative viability was 0.53.

And the relative viability (UMC-11; first compound 8 µM)?
The relative viability was 0.464.

And the relative viability (RERF-LC-KJ; first compound 0.253 µM)?
Its relative viability is 0.57.

What about the relative viability (RERF-LC-KJ; first compound 0.8 µM) of the same molecule?
The relative viability was 0.615.

What about the relative viability (RERF-LC-KJ; first compound 2.53 µM) of the same molecule?
Its relative viability is 0.643.

And the relative viability (RERF-LC-KJ; first compound 8 µM)?
Its relative viability is 0.644.

And the relative viability (HCC-78; first compound 0.253 µM)?
Its relative viability is 0.418.

What about the relative viability (HCC-78; first compound 0.8 µM) of the same molecule?
The relative viability was 0.35.

What about the relative viability (HCC-78; first compound 2.53 µM) of the same molecule?
Its relative viability is 0.376.

And the relative viability (HCC-78; first compound 8 µM)?
The relative viability was 0.382.

What about the relative viability (SW 1573; first compound 0.253 µM) of the same molecule?
The relative viability was 0.573.

And the relative viability (SW 1573; first compound 0.8 µM)?
The relative viability was 0.712.

And the relative viability (SW 1573; first compound 2.53 µM)?
The relative viability was 0.792.

What about the relative viability (SW 1573; first compound 8 µM) of the same molecule?
The relative viability was 0.565.

What about the relative viability (EPLC-272H; first compound 0.253 µM) of the same molecule?
The relative viability was 0.297.

What about the relative viability (EPLC-272H; first compound 0.8 µM) of the same molecule?
Its relative viability is 0.339.

What about the relative viability (EPLC-272H; first compound 2.53 µM) of the same molecule?
The relative viability was 0.292.

And the relative viability (EPLC-272H; first compound 8 µM)?
The relative viability was 0.283.

What about the relative viability (NCI-H1755; first compound 0.253 µM) of the same molecule?
Its relative viability is 0.757.

What about the relative viability (NCI-H1755; first compound 0.8 µM) of the same molecule?
Its relative viability is 0.72.

What about the relative viability (NCI-H1755; first compound 2.53 µM) of the same molecule?
The relative viability was 0.79.

And the relative viability (NCI-H1755; first compound 8 µM)?
Its relative viability is 0.67.

What about the relative viability (NCI-H1993; first compound 0.253 µM) of the same molecule?
The relative viability was 0.401.

And the relative viability (NCI-H1993; first compound 0.8 µM)?
The relative viability was 0.572.

What about the relative viability (NCI-H1993; first compound 2.53 µM) of the same molecule?
The relative viability was 0.593.

And the relative viability (NCI-H1993; first compound 8 µM)?
The relative viability was 0.607.

What about the relative viability (HARA; first compound 0.253 µM) of the same molecule?
Its relative viability is 0.612.

And the relative viability (HARA; first compound 2.53 µM)?
The relative viability was 0.564.

And the relative viability (HARA; first compound 8 µM)?
Its relative viability is 0.534.

What about the relative viability (NCI-H596; first compound 0.253 µM) of the same molecule?
The relative viability was 0.784.

And the relative viability (NCI-H596; first compound 2.53 µM)?
The relative viability was 0.764.

What about the relative viability (NCI-H596; first compound 8 µM) of the same molecule?
Its relative viability is 0.532.

And the relative viability (NCI-H838; first compound 0.253 µM)?
Its relative viability is 0.399.

And the relative viability (NCI-H838; first compound 0.8 µM)?
Its relative viability is 0.34.

What about the relative viability (NCI-H838; first compound 2.53 µM) of the same molecule?
The relative viability was 0.459.

And the relative viability (NCI-H838; first compound 8 µM)?
The relative viability was 0.383.

And the relative viability (COR-L 105; first compound 0.253 µM)?
The relative viability was 0.715.

What about the relative viability (COR-L 105; first compound 0.8 µM) of the same molecule?
The relative viability was 0.632.

What about the relative viability (COR-L 105; first compound 2.53 µM) of the same molecule?
Its relative viability is 0.697.

And the relative viability (COR-L 105; first compound 8 µM)?
The relative viability was 0.821.

And the relative viability (SK-MES-1; first compound 0.253 µM)?
The relative viability was 0.573.

What about the relative viability (SK-MES-1; first compound 0.8 µM) of the same molecule?
The relative viability was 0.703.

And the relative viability (SK-MES-1; first compound 2.53 µM)?
Its relative viability is 0.63.

What about the relative viability (SK-MES-1; first compound 8 µM) of the same molecule?
Its relative viability is 0.613.

And the relative viability (NCI-H1975; first compound 0.253 µM)?
The relative viability was 0.817.

What about the relative viability (NCI-H1975; first compound 0.8 µM) of the same molecule?
The relative viability was 0.661.

What about the relative viability (NCI-H1975; first compound 2.53 µM) of the same molecule?
Its relative viability is 0.79.

What about the relative viability (NCI-H1975; first compound 8 µM) of the same molecule?
Its relative viability is 0.595.

What about the relative viability (NCI-H2228; first compound 0.253 µM) of the same molecule?
Its relative viability is 0.568.

What about the relative viability (NCI-H2228; first compound 0.8 µM) of the same molecule?
The relative viability was 0.641.

And the relative viability (NCI-H2228; first compound 2.53 µM)?
The relative viability was 0.672.

What about the relative viability (NCI-H2228; first compound 8 µM) of the same molecule?
Its relative viability is 0.473.

What about the relative viability (HCC-366; first compound 0.253 µM) of the same molecule?
The relative viability was 1.02.

And the relative viability (HCC-366; first compound 0.8 µM)?
Its relative viability is 0.709.

What about the relative viability (HCC-366; first compound 2.53 µM) of the same molecule?
The relative viability was 1.01.

What about the relative viability (HCC-366; first compound 8 µM) of the same molecule?
The relative viability was 0.747.

And the relative viability (PC-3 [JPC-3]; first compound 0.253 µM)?
The relative viability was 0.832.

What about the relative viability (PC-3 [JPC-3]; first compound 0.8 µM) of the same molecule?
Its relative viability is 0.569.

What about the relative viability (PC-3 [JPC-3]; first compound 2.53 µM) of the same molecule?
The relative viability was 0.769.

What about the relative viability (PC-3 [JPC-3]; first compound 8 µM) of the same molecule?
The relative viability was 0.818.

What about the relative viability (NCI-H520; first compound 0.253 µM) of the same molecule?
Its relative viability is 0.284.

And the relative viability (NCI-H520; first compound 0.8 µM)?
Its relative viability is 0.25.

What about the relative viability (NCI-H520; first compound 2.53 µM) of the same molecule?
The relative viability was 0.311.

And the relative viability (NCI-H520; first compound 8 µM)?
The relative viability was 0.281.

And the relative viability (HCC-827; first compound 0.253 µM)?
Its relative viability is 0.807.

And the relative viability (HCC-827; first compound 0.8 µM)?
Its relative viability is 0.74.

What about the relative viability (HCC-827; first compound 2.53 µM) of the same molecule?
The relative viability was 0.849.

What about the relative viability (HCC-827; first compound 8 µM) of the same molecule?
Its relative viability is 0.831.

And the relative viability (LCLC-103H; first compound 0.253 µM)?
The relative viability was 0.433.

And the relative viability (LCLC-103H; first compound 0.8 µM)?
Its relative viability is 0.433.

What about the relative viability (LCLC-103H; first compound 2.53 µM) of the same molecule?
Its relative viability is 0.512.

What about the relative viability (LCLC-103H; first compound 8 µM) of the same molecule?
Its relative viability is 0.473.

What about the relative viability (HCC-44; first compound 0.253 µM) of the same molecule?
Its relative viability is 0.636.

And the relative viability (HCC-44; first compound 2.53 µM)?
The relative viability was 0.535.

What about the relative viability (HCC-44; first compound 8 µM) of the same molecule?
The relative viability was 0.512.

What about the relative viability (LOU-NH91; first compound 0.253 µM) of the same molecule?
Its relative viability is 0.769.

And the relative viability (LOU-NH91; first compound 0.8 µM)?
Its relative viability is 0.699.

And the relative viability (LOU-NH91; first compound 2.53 µM)?
Its relative viability is 0.703.

And the relative viability (LOU-NH91; first compound 8 µM)?
The relative viability was 0.664.

And the relative viability (NCI-H1651; first compound 0.253 µM)?
Its relative viability is 0.772.

What about the relative viability (NCI-H1651; first compound 0.8 µM) of the same molecule?
Its relative viability is 0.728.

And the relative viability (NCI-H1651; first compound 2.53 µM)?
The relative viability was 0.994.

And the relative viability (NCI-H1651; first compound 8 µM)?
Its relative viability is 0.919.

What about the relative viability (NCI-H2170; first compound 0.253 µM) of the same molecule?
Its relative viability is 0.691.

What about the relative viability (NCI-H2170; first compound 0.8 µM) of the same molecule?
Its relative viability is 0.612.

And the relative viability (NCI-H2170; first compound 2.53 µM)?
Its relative viability is 0.817.

And the relative viability (NCI-H2170; first compound 8 µM)?
The relative viability was 0.588.

What about the relative viability (NCI-H1793; first compound 0.253 µM) of the same molecule?
The relative viability was 0.359.

And the relative viability (NCI-H1793; first compound 2.53 µM)?
The relative viability was 0.319.

What about the relative viability (NCI-H1793; first compound 8 µM) of the same molecule?
Its relative viability is 0.244.
